Kd and stoichiometry N data for four compounds are collected here from article PMC8458285, “The Acinetobacter baumannii disinfectant resistance protein, AmvA, is a spermidine and spermine efflux pump” (Communications Biology, 2021).

The target in assay [1] is T1, AmvR (Acinetobacter baumannii, UniProt A0A0D5YGI2).
T1 construct: gene ABUW_1678; AmvR (amvR amplified from A. baumannii ATCC17978 genomic DNA) carrying a C-terminal hexahistidine tag; dimer in solution
The assay is described as follows: nanoDSF isothermal analysis (Kd at […] °C); weak, DSF shift only +[…] °C. In kind it is binding.

The target of assay [2] is T1, AmvR. As to the kind of experiment: nanoDSF isothermal analysis (Kd at […] °C); DSF shift +[…] °C. In kind it is binding.
Assay [3] deals with AmvR (Acinetobacter baumannii ATCC17978). The assay is described as follows: SEC; analytical SEC on Superdex 200 10/300 GL; elution volume compared with MW standards (HMW and LMW calibration sets). Background: SEC sorts molecules by how far they enter the pores of the column.

Consider `NCCCCN` [putrescine], for which the Kd in assay [1] was found to be 260 µM. On to `NCCCCNCCCN` [spermidine], for which the Kd in assay [2] turned out to be 9.5 µM.

Turning to `NCCCNCCCCNCCCN` [spermine], the Kd in assay [2] amounted to 5.4 µM.

In assay [3], AmvR (natural protein) came in with a stoichiometry N of 2.

As usually defined, the Kd is the equilibrium constant for the complex coming apart. A word on the stoichiometry N: it is a count of units in the complex or per binding partner.
